Results from patent publication US9040715B2 (priority 2008, dated 2015).
Values after ≈ are worked out from the molar mass of the structure shown. *1 amine or outer side, *2 acyl side, *3 side chain or, on linkers, in order; H or OH if unused. Where a SMILES comes first, the peptide text is derived from it. Bridges are numbered along the chain shown (N, C = ends). [ ]: non-standard residue; d: D form. The star is where a group is joined. hTyr(3S-OH,4S-OH,3'-OSO3H) = N[C@H](C(=O)O)[C@H](O)[C@@H](O)c1ccc(O)c(OS(=O)(=O)O)c1; Orn(4R-OH,5R-OH) = O=C([C@H](C[C@@H](O)[C@@H](O)N[*:3])N[*:1])[*:2]; Pro(3S-OH,4S-Me) = C[C@H]1CN[C@H](C(=O)O)[C@H]1O; X1 = CCCCCOc1ccc(-c2cc(-c3ccc(C(=O)*)cc3)no2)cc1; Gln(3R-OH) = NC(=O)C[C@@H](O)[C@H](N)C(=O)O; Hyp = O=C(O)[C@@H]1C[C@@H](O)CN1

Key:
Candida tropicalis = test: Anti-fungal/anti-yeast activity: MIC50 (broth microdilution) and MFC; type: cell-based
Method: (§1) Fluconazole, an ergosterol inhibitor, and the beta-1,3-glucan inhibitor micafungin served as controls (See Tables 1-8).
(§2) The minimum inhibitory concentrations resulting in 50% growth inhibition (MIC50) of […] Candida species (C. albicans, C. tropicalis and C. glabrata, C. lusitaniae, C. parapsilosis, and C. apicola) as well as Aspergillus fumigatus to a set of novel synthetic compounds was determined in accordance with the guidelines in CLSI document M27-A2 (Clinical and Laboratory Standards Institute; Wayne, Pa.). The total volume of cells and drug was 100 μL per microtiter well, and each drug was diluted in RPMI to achieve final concentrations of 0.2-100 μg/ml. Uninoculated cultures were used as a reference standard. Stock inoculum suspensions were prepared from 24 hour cultures on YPD (yeast extract/peptone/dextrose) media at 30° C. For MIC determinations, an inoculum of 1.0×10^3 cells of Candidia and 2.0×10^3 cells of Aspergillus per well were used, and cells in diluted drugs were prepared in RPMI-1640 medium. MICs were determined both visually and spectrophotometrically at 24 hours and 48 h at 550 nm using a micro plate reader. The MIC50 endpoint was measured as the lowest drug concentration resulting in a reduction of growth of 50% or more compared with growth of the control.
(§3) The minimum fungicidal concentrations (MFCs) were determined for each drug-isolate-medium combination as follows. After 48 hours of incubation, 100 μL of each drug-isolate-medium combination (2 plates) was subcultured onto YPD plates (100 μL of solution was spread over the YPD plate). […] The plates were then incubated at 30° C. for 48 hours.
(§4) The in vitro fungicidal activities (MFCs) were determined for each drug-isolate-medium combination as follows. After 48 hours of incubation, 10 μL each drug-isolate-medium combination was spotted onto YPD plates (10 μL of each well is spotted sequentially with positive and negative control wells). […] The plates were then incubated at 30° C. for 48 hours.

Candida glabrata = test: as above; type: cell-based; conditions: for Activity (fungicidal/fungistatic) / Ratio MFC/MIC: Candida glabrata
Method: as §1, §2, §3, §4

Candida lusitaniae = test: as above; type: cell-based; conditions: for Activity (fungicidal/fungistatic) / Ratio MFC/MIC: Candida lusitaniae
Method: as §1, §2, §3, §4

Candidia parapsilosis = test: as above; type: cell-based; conditions: for Activity (fungicidal/fungistatic) / Ratio MFC/MIC: Candidia parapsilosis
Method: as §1, §2, §3, §4

Candida apicola = test: as above; type: cell-based
Method: as §1, §2, §3, §4

Candida albicans (CAF-2) = test: as above; type: cell-based
Method: as §1, §2, §3, §4

Huh7 or HepG2 cell line = test: MTT assay (cytotoxicity); type: cell-based, human; conditions: 24 hours and 48 hours
Method: The MTT assay is a colorimetric assay that measures the reduction of yellow 3-(4,5-dimethylhiazol-2-yl)-2,5-diphenyl tetrazolium bromide (MTT) by mitochondrial succinate dehydrogenase. The MTT enters the cells and passes into the mitochondria where it is reduced to an insoluble, dark purple, formazan product. The cells are then solubilized with an organic solvent (e.g., isopropanol) and the released, solubilized formazan reagent is measured spectrophotometrically. Since reduction of MTT can only occur in metabolically active cells, the level of activity is a measure of the viability of the cells.
Cells of the Huh7 or HepG2 cell line were seeded in a 96 well plate. The plate was incubated overnight at 37° C. in a humidified incubator, 5% CO2. The test compounds were added to the plate. Different concentrations of drug were tested in triplicate along with a negative control. The final volume was adjusted to 100 μl per well. The plate was incubated overnight at 37° C. in a humidified incubator, 5% CO2. After 24 hours and 48 hours, MTT reagent (5 mg/ml, 10 μl/100 μl per well of the 96 well plate) was added and incubated at 37° C. for 3 hours. After 3 hours, 100 μl of the DMSO solution was added to each well and the plate was rocked at room temperature for 1 hour. The plate was then read on a plate reader at […].

Huh7 cells = test: Neutral red uptake assay (cytotoxicity); type: cell-based, human
Excerpt: The neutral red uptake assay is a cytotoxicity test that is based on the ability of viable cells to incorporate and bind the supra-vital dye neutral red in the lysosomes. This weakly cationic dye penetrates cell membranes by non-ionic passive diffusion and concentrates in the lysosomes, where it binds by electrostatic hydrophobic bonds to anionic and phosphate groups of the lysosomal matrix. The dye is then extracted from the viable cells using an acidified ethanol solution, and the absorbance of the solubilized dye is read. When the cell dies or the pH gradient is reduced, the dye is not retained and consequently, the amount of retained dye is proportional to the number of viable cells. Most primary cells and cell lines can be used for this method. The HepG2 and Huh7, two human hepatoma cell lines, were used for this study. The cells were seeded in 96-well tissue culture plates and treated for 48 hours with the compounds. The plates were then incubated for 2 hours with a medium containing neutral red. The cells were subsequently washed, the dye was extracted in each well, and the absorbance was read using a spectrophotometer (FIG. 3 and Table 11).

[1] = system: Saccharomyces cerevisiae (YPH501); test: Anti-fungal/anti-yeast activity: MIC50 (broth microdilution) and MFC; type: cell-based; conditions: for Activity (fungicidal/fungistatic) / Ratio MFC/MIC: Saccharomyces cerevisiae (YPH501)
Aspergillus fumigatus = test: as above; type: cell-based
Method: as §1, §2, §3, §4

| SMILES | Activity (fungicidal/fungistatic) (Candida tropicalis) | MFC (Candida tropicalis) [mg/L] | Ratio MFC/MIC (Candida tropicalis) | Activity (fungicidal/fungistatic) (Candida glabrata) | Ratio MFC/MIC (Candida glabrata) | MFC (Candida glabrata; Nakaseomyces glabratus) [mg/L] | Activity (fungicidal/fungistatic) (Candida lusitaniae) | Ratio MFC/MIC (Candida lusitaniae) | MFC (Candida lusitaniae; Clavispora lusitaniae) [mg/L] | MFC (Candidia parapsilosis) [mg/L] | Activity (fungicidal/fungistatic) (Candidia parapsilosis) | Ratio MFC/MIC (Candidia parapsilosis) | Activity (fungicidal/fungistatic) (Candida apicola; Candida apicola) | Ratio MFC/MIC (Candida apicola; Candida apicola) | MFC (Candida apicola; Starmerella apicola) [mg/L] | Activity (fungicidal/fungistatic) (Candida albicans (CAF-2)) | MFC (Candida albicans (CAF-2)) [mg/L] | Ratio MFC/MIC (Candida albicans (CAF-2)) | MFC ([1]; Saccharomyces cerevisiae) [mg/L] | Activity (fungicidal/fungistatic) [1] | also measured |
| --- | --- | --- | --- | --- | --- | --- | --- | --- | --- | --- | --- | --- | --- | --- | --- | --- | --- | --- | --- | --- | --- |
| O=c1c2ccccc2sn1Cc1nnc(Cc2ccccc2)o1 [Compound I-4] | fungicidal (An MFC/MIC ratio of less than four indicates that the compound is fungicidal) | 12.5 | 1 | fungicidal (An MFC/MIC ratio of less than four indicates that the compound is fungicidal) | 1 | 12.5 | fungicidal (An MFC/MIC ratio of less than four indicates that the compound is fungicidal) | 1 | 12.5 | 12.5 | fungicidal (An MFC/MIC ratio of less than four indicates that the compound is fungicidal) | 1 | fungicidal (An MFC/MIC ratio of less than four indicates that the compound is fungicidal) | 1 | 12.5 | fungicidal (An MFC/MIC ratio of less than four indicates that the compound is fungicidal) | 6.4 | 1 | 6 (≈ 18.6 µM) | fungicidal (An MFC/MIC ratio of less than four indicates that the compound is fungicidal) | MIC (Candida tropicalis; read-out: MIC-50): 12.5 mg/L; MIC (Candida glabrata; Nakaseomyces glabratus, read-out: MIC-50): 12.5 mg/L; MIC (Candida lusitaniae; Clavispora lusitaniae, read-out: MIC-50): 12.5 mg/L; MIC (Candidia parapsilosis; read-out: MIC-50): 12.5 mg/L; MIC-50 (Candida apicola; Candida apicola): 12.5 mg/L; MIC (Candida albicans (CAF-2); read-out: MIC-50): 6.4 mg/L; Toxicity to mammalian cell lines (MTT assay) (Huh7 or HepG2 cell line): minimally toxic; Percentage Viability (Huh7 cells; 3.3 μg/mL (approx 1X MIC)): >100%; Percentage Viability (Huh7 cells; 10 μg/mL (approx 3X MIC)): >100%; Percentage Viability (Huh7 cells; 33 μg/mL (approx 10X MIC)): >100%; Percentage Viability (Huh7 cells; 100 μg/mL (approx 30X MIC)): 75%; Ratio MFC/MIC [1]: 1; MIC ([1]; Saccharomyces cerevisiae, read-out: MIC-50): 6 mg/L (≈ 18.6 µM) |
| CCCCCOc1ccc(-c2cc(-c3ccc(C(=O)N[C@H]4C[C@@H](O)[C@@H](O)NC(=O)[C@@H]5[C@@H](O)[C@@H](C)CN5C(=O)[C@H]([C@H](O)CC(N)=O)NC(=O)[C@H]([C@H](O)[C@@H](O)c5ccc(O)c(OS(=O)(=O)O)c5)NC(=O)[C@@H]5C[C@@H](O)CN5C(=O)[C@H]([C@@H](C)O)NC4=O)cc3)no2)cc1 [Micafungin, micafungin, reference compound] (X1-[Orn(4R-OH,5R-OH)]T[Hyp][hTyr(3S-OH,4S-OH,3'-OSO3H)][Gln(3R-OH)][Pro(3S-OH,4S-Me)]; lactam 1-C) | fungicidal (An MFC/MIC ratio of less than four indicates that the compound is fungicidal) | 0.032 | 2 | fungicidal (An MFC/MIC ratio of less than four indicates that the compound is fungicidal) | 1 | 0.016 | fungicidal (An MFC/MIC ratio of less than four indicates that the compound is fungicidal) | 1 | 0.032 | 3.2 | fungistatic (an MFC/MIC ratio of greater than four indicates that the compound is fungistatic) | 8 | fungicidal (An MFC/MIC ratio of less than four indicates that the compound is fungicidal) | 2 | 0.032 | fungicidal (An MFC/MIC ratio of less than four indicates that the compound is fungicidal) | 0.016 | 1 | 0.064 (≈ 0.0504 µM) | fungicidal (An MFC/MIC ratio of less than four indicates that the compound is fungicidal) | MIC50 (Candida tropicalis): 0.016 mg/L; MIC50 (Candida glabrata; Nakaseomyces glabratus): 0.016 mg/L; Activity (fungicidal/fungistatic) (Aspergillus fumigatus): fungistatic (an MFC/MIC ratio of greater than four indicates that the compound is fungistatic); MFC (Aspergillus fumigatus): 8 mg/L; MIC50 (Aspergillus fumigatus): 1 mg/L; Ratio MFC/MIC (Aspergillus fumigatus): 8; MIC50 (Candida lusitaniae; Clavispora lusitaniae): 0.032 mg/L; MIC50 (Candidia parapsilosis): 0.4 mg/L; MIC50 (Candida apicola; Starmerella apicola): 0.016 mg/L; MIC50 (Candida albicans (CAF-2)): 0.016 mg/L; MIC50 ([1]; Saccharomyces cerevisiae): 0.032 mg/L (≈ 0.0252 µM); Ratio MFC/MIC [1]: 2 |
